Earlier results on 3 compounds are cited in patent US8980929B2, “Substituted seven-membered heterocyclic compounds as dipeptidyl peptidase-iv inhibitors for the treatment of diabetes” (Merck Sharp & Dohme Corp., priority 2010, dated 2015).

For one data set, the system named is cardiac allograft. The settings on record: rats; doubled from day 7.
Another data set concerns hematopoiesis. The settings on record: mouse, cyclophosphamide-induced neutropenia.
The next data set concerns the target DPP-4 (Homo sapiens (Human), UniProt P27487).

Sequence of DPP-4 (P27487 whole entry, species assumed): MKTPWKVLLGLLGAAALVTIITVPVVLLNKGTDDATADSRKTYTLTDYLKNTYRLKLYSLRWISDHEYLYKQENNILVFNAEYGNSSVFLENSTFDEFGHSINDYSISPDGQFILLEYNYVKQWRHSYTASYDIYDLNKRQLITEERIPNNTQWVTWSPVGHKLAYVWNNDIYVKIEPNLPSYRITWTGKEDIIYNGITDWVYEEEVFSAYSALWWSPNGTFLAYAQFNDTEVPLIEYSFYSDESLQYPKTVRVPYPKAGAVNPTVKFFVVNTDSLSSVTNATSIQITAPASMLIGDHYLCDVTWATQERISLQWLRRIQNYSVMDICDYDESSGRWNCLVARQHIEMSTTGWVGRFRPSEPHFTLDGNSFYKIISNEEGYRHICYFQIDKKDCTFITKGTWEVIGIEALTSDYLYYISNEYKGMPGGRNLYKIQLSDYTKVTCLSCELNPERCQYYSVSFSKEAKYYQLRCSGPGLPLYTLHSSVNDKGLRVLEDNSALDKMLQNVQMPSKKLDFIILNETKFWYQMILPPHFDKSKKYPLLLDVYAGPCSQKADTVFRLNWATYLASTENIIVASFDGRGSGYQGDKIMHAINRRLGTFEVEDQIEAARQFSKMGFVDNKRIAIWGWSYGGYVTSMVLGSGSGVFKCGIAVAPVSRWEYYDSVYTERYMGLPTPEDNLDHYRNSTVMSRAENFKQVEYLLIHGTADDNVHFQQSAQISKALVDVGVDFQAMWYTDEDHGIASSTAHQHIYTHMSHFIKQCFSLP

`CC(C)N1CCC(c2ccccc2)(c2ccccc2)CC1` [Prodipine, Pro-Pro-diphenyl-phosphonate]: in the data set on cardiac allograft, the cardiac allograft survival is on record as 14 day.

On to `CC(C)[C@H](N)C(=O)N1CCC[C@H]1B(O)O` [Val-Boro-Pro], for which the hematopoiesis entry in the data set with hematopoiesis is “stimulated hematopoiesis”.

diprotin A: the “degradation of GRF to GRF[3-44] in plasma” value at DPP-4 is “prevented”.
